This is an account of results in PMC13316043, “Structural basis of NSD2 degradation via targeted recruitment of SCF-FBXO22” (Nature Communications, 2026).

For this assay, the target named is T1, NSD2 (U2OS NSD2-HiBiT cells) (Homo sapiens, UniProt O96028).
T1 construct: RNPs were introduced into U2OS cells by electroporation; endogenous in cells; host or cells: U2OS NSD2-HiBiT clone P112 (CRISPR knock-in)
T1 sequence (O96028 1-1365): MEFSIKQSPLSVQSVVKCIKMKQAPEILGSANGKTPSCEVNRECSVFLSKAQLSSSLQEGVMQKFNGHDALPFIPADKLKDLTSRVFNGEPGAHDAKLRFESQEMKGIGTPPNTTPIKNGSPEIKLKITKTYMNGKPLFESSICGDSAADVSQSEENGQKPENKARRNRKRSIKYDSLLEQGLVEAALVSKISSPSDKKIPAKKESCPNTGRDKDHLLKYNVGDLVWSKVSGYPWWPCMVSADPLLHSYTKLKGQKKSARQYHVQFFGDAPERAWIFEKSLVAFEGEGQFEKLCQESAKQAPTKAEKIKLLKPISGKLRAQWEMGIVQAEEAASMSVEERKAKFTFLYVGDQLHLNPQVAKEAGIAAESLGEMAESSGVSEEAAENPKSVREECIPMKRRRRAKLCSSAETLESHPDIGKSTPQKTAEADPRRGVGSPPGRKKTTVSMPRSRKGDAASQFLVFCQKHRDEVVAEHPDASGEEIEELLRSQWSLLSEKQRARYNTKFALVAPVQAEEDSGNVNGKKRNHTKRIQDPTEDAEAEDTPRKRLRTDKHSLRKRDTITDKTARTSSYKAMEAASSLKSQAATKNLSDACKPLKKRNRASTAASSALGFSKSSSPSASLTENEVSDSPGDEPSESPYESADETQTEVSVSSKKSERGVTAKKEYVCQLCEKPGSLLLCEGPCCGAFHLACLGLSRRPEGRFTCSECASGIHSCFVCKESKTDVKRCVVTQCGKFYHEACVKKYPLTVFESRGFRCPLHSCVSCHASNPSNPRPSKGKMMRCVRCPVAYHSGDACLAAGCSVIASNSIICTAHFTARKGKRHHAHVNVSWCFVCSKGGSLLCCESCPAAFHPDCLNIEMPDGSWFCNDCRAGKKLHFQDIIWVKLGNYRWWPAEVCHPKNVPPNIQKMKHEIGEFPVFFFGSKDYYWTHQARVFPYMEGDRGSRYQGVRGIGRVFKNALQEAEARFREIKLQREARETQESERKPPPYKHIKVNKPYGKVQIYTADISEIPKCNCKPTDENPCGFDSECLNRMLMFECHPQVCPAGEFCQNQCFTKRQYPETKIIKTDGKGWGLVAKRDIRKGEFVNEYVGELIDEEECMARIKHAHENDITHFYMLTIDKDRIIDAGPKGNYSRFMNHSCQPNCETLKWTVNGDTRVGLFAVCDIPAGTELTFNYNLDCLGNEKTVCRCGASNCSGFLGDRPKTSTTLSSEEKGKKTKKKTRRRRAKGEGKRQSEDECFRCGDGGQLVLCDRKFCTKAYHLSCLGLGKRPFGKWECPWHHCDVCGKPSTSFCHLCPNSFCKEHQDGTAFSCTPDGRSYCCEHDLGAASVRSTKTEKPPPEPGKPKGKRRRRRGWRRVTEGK
In words: NSD2 HiBiT degradation assay. It is filed as cell-based. The note with it: for NSD2 Remaining (%) / reduction of NSD2 levels: U2OS NSD2-HiBit cells, 1 µM, 6 h; for DC50: dose-response, read-out: DC50 (concentration at which 50% of NSD2 is degraded). The text has this: The NSD2 genomic sequence was obtained from the UCSC genome browser and used to design sgRNAs to introduce HiBiT tags at either the 5’ or 3’ ends of the gene. sgRNA were assembled into RNPs using TrueCut Cas9 Protein v2 (Invitrogen, Cat#A36497), an sgRNA crRNA:tracrRNA duplex (below; IDT) and ssODN (below; IDT). RNPs were introduced into U2OS cells by electroporation using a Neon XT electroporation system (1750 V, 10 ms, 3 pulses) in R-buffer, using Thermo Fisher Neon transfection kit (Cat# MPK1025K) and according to the manufacturer's protocol. After plating for recovery for four days, single cell clones limited dilution cloning. Single cell clones that grew out were identified as containing integrated HiBiT tags on NSD2 by performing HiBiT assays using HiBiT lytic assay (Promega: N3040) and read on a plate reader. Clones were further confirmed by PCR analysis.
To test compounds for NSD2 degradation, a compound plate was prepared by diluting compounds in DMSO into cell media in a 384-deep-well plate (Revvity). Then, 6 µL of the diluted compounds were transferred into the well of the 384-well assay plate (Corning). 24 µL of the NSD2 HiBiT U2OS P112 cells or parental U2OS cells (3000 cells/well) were added to each well to make a final volume of 30 µL with a 0.1% final DMSO concentration. For multiple time points, multiple assay plates were made and incubated in the incubator at 37 °C in 5% CO2 for 3/6/12/24/48 hrs. 10 min before the reading, the assay plate and the Nano-Glo HiBiT Lytic Detection System (Promega) were brought to room temperature. The HiBiT lytic reagent master mix was prepared according to the product instructions and added to the assay plate. The plate was then incubated on an orbital shaker for 5 min at room temperature, equilibrated for 10 min, and then read using the GloMax luminometer (Promega) for luminescence detection. Compound treatment was normalized to the DMSO control with the background subtraction using the parental U2OS cell line as the background control, plated alongside the HiBiT U2OS P112 cells. The data and graphs were then analyzed and generated using GraphPad Prism (v 10.4.1). DC50 and Dmax were calculated by fitting the data to a non-linear regression curve.
Background: HiBiT is a short tag that completes a luciferase, so light tracks the accessible tagged protein.

Regarding `O=Cc1ccc(C(=O)N2CCc3cc(NC(=O)c4ccc(CN(C(=O)c5ccc6c(c5)OCC(=O)N6)C5CC5)cc4)ccc3C2)cc1` [UNC10415667], the “NSD2 Remaining (%)” value is listed as 20% and the “reduction of NSD2 levels” value is on record as “about 75%”. For the setting “U2OS NSD2 HiBit cells”, the “fold more potent (DC50) than UNC8732 and UNC10088” value is given as “about 2 fold”; the DC50 was 460 nM.
Take `Cc1cc(C=O)ccc1C(=O)N1CCc2cc(NC(=O)c3ccc(CN(C(=O)c4ccc5c(c4)OCC(=O)N5)C4CC4)cc3)ccc2C1` [UNC12149]: the “NSD2 Remaining (%)” value stood at 7.4% and the “reduction of NSD2 levels” value is listed as “greater than 90%”. Also, for the setting “U2OS NSD2 HiBit cells”, the “fold more potent (DC50) than UNC8732” value is recorded as ~ 10 fold, the “fold more potent (DC50) than UNC10415667” value is listed as ~ 4 fold and the DC50 is 120 nM.
